Results reported in ChEMBL document CHEMBL1201862, “PubChem BioAssay data set” (2004).
Where a name gives a salt, the structure may show the parent alone. Activity calls are given as the source filed them.

Assays:
[1] = biological target: NAD-dependent protein deacylase sirtuin-5, mitochondrial (Homo sapiens, UniProt Q9NXA8); assay: blockers of sirtuin-5 peptide desuccinylation – biochemical, fluorescence imaging, cherry-pick, set 6, dose response (AID 720597)
[2] = biological target: Oxysterols receptor LXR-beta (Homo sapiens, UniProt P55055); type: functional, cell-based;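 also: Cell-based luminescence dose-response assay of agonist activity at LXR, run as a confirmatory counterscreen to a daf-12 agonist screen; HEK293 cells with Gal4-LXR fusion and GAL4-driven luciferase reporter; agonist potency from rising luciferase signal of a Gal4-LXR reporter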
Oxysterols receptor LXR-beta, sequence (P55055 whole entry, the tested form may be a part): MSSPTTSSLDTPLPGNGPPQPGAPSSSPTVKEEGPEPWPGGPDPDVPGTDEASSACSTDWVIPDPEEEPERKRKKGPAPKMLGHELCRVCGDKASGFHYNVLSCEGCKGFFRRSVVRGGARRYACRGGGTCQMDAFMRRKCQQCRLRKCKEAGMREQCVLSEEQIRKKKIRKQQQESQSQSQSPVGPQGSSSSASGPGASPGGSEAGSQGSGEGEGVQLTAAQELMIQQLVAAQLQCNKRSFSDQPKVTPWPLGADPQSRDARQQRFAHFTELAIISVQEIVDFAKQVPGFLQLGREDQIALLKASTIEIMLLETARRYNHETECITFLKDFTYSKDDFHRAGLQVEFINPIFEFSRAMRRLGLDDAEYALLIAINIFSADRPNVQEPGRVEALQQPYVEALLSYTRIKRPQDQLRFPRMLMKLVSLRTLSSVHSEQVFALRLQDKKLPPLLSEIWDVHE

[3] = cells
[4] = inhibitors of orthopox intermediate gene expression, dose response, cell-based, single fluorophore reporter, dry powder (AID 1117271); type: functional
[5] = Single fluorophore orthopox expression reporter, late gene expression Measured in Cell-Based and Microorganism Combination System Using Plate Reader - 2142-08_Inhibitor_Dose_DryPowder_Activity.; type: functional
[6] = Orthopox viral replication plaque formation Measured in Cell-Based and Microorganism Combination System Using Imaging - 2142-05_Inhibitor_Dose_DryPowder_Activity.; type: functional
[7] = lung carcinoma cell viability loss – CellTiter-Glo luminescence, dry powder, set 17, dose response (AID 1117284); type: functional, cell-based; conditions: A549
[8] = viability loss in HepG2 liver cells – cell-based, luminescence, dry powder, set 9, cytotoxicity control, dose response (AID 743358); type: functional
[9] = viability loss in HEK293 cells – cell-based, luminescence, dry powder, set 12, cytotoxicity control, dose response (AID 743354); type: functional
[10] = toxicity to human HepG2 hepatoma cells – cell-based, plate reader, dry powder samples, cytotoxicity control, dose response (AID 1159569); type: functional;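 also: inhibitor potency with signal falling toward the positive control level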
[11] = P. falciparum Dd2 growth inhibitors, dose response, SYBR Green, cherry-picked samples (AID 1159567); type: functional, cell-based
[12] = Dd2 malaria parasite growth inhibition potency – SYBR Green, dry powder samples, dose response (AID 1159566); type: functional, cell-based;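 also: potency for growth inhibition with lower SYBR green DNA signal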
[13] = Plasmodium falciparum Dd2 Sybr green parasite growth Measured in Cell-Based and Microorganism Combination System Using Plate Reader - 2153-01_Inhibitor_Dose_DryPowder_Activity_Set3.; type: functional
[14] = Dd2 parasite growth inhibition in erythrocytes – SYBR Green, dry powder samples, set 9, dose response (AID 1159568); type: functional, cell-based
[15] = growth inhibition of yeast DHODH-expressing 3D7 parasites – SYBR Green, dry powder samples, dose response (AID 1159570); type: functional, cell-based;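 also: parasite growth measured after 72 hours of compound exposure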
[16] = growth inhibition of PfATP4-mutant resistant parasites – NITD609-resistant line, SYBR Green, dry powder, dose response (AID 1159571); type: functional, cell-based;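 also: parasites synchronized at ring stage by sorbitol before testing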
[17] = rise of 4N DNA cells, HeLa – IC50, dose response (AID 1117351); type: functional, cell-based
[18] = rise of 2N DNA cells, HeLa – IC50, dose response (AID 1117349); type: functional, cell-based
[19] = Potency on glucagon-like peptide 1 release, dose-response in NCI-H716 cell line, half maximal inhibitory concentration (AID 1117344); type: functional, cell-based
[20] = tested on: Streptococcus; assay: GAS UMAA2166 growth inhibition – luminescence, BacTiterGlo, counter-screen for streptokinase expression inhibitor project, dose response (AID 1915); type: functional, organism-based; conditions: read-out: EC50;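 also: potency for reduction of bacterial viability or growth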
[21] = glucagon-like peptide-1 release potency in STC-1, concentration-response, half-maximal inhibitory concentration in the STC-1 line (AID 1117345); type: functional, cell-based
[22] = tested on: Streptococcus sp. 'group A'; assay: Streptococcus pyogenes SK(-)GAS viability under kanamycin – luminescence, BacTiterGlo, confirmation, counter-screen for streptokinase expression inhibitor project, dose response (AID 1900); type: functional, organism-based
[23] = cells; type: functional, cell-based
[24] = cells; type: functional, cell-based; conditions: INS-1E
[25] = IC50 of insulin release inhibition, rat insulinoma INS-1E line, 5 mM glucose, cell-based (AID 1117331); type: functional
[26] = biological target: T1, Trace amine-associated receptor 1 (Homo sapiens, UniProt Q96RJ0); assay: Counterscreen for agonists of the human trace amine associated receptor 1 (hTAAR1): Fluorescence-based cell-based high throughput dose response assay to identify hTAAR1 agonist that also desensitize TAAR1 receptor response.; type: functional
T1 sequence (Q96RJ0 whole entry): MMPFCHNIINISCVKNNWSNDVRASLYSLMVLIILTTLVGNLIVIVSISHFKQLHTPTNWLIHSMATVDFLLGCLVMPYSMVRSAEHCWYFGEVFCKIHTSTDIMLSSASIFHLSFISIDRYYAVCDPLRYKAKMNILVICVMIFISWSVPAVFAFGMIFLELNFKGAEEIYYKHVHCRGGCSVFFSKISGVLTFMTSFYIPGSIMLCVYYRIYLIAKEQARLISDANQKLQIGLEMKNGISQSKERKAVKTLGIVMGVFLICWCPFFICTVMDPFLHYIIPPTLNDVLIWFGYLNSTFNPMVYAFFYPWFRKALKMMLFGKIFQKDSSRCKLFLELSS

[27] = cells; type: functional, cell-based; remark: listed apart in the source
[28] = biological target: T1, Trace amine-associated receptor 1; assay: Fluorescence-based cell-based high throughput dose response assay to identify agonists of the human trace amine associated receptor 1 (TAAR1).; type: functional

NAD-dependent protein deacylase sirtuin-5, mitochondrial, sequence (Q9NXA8 whole entry, the tested form may be a part): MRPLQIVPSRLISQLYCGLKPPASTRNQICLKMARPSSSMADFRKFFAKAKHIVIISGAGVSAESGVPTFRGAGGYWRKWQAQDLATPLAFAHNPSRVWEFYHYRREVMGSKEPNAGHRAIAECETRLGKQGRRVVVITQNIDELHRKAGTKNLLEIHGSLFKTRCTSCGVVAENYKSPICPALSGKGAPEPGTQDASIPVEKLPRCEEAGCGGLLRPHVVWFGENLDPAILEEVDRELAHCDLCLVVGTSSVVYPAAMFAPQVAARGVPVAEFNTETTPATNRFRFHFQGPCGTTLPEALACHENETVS

For `COc1ccc(S(=O)(=O)Nc2ccc3c(c2)CC(=O)N([C@H](C)CO)C[C@@H](C)[C@@H](CN(C)Cc2ccc(C(F)(F)F)cc2)O3)cc1`, the AC50 [1] was > 30 µM (inactive).

With `C/C(=N\Nc1ccccc1[N+](=O)[O-])c1ccccc1O` the EC50 [2] was > 67.6 µM (inactive) and the EC50 [3] was > 67.6 µM (inactive).

With `Cc1cccc(-c2ccc(CN(C)C[C@@H]3Oc4cc(C#C[C@@H](C)O)ccc4S(=O)(=O)N([C@@H](C)CO)C[C@@H]3C)cc2)c1` the AC50 [4] was 1.85 µM (active), the AC50 [5] was 1.48 µM (active) and the AC50 [6] was 0.15 µM (active). For the same molecule, the AC50 [7] was 35.5 µM (active).

In the case of `COC(=O)CCCCCCC(=O)N1CC[C@@H]2[C@@H](CO)N(C)c3ccc(-c4cccc(F)c4)cc3[C@@H]21`, the AC50 [8] is reported as > 52 µM (inactive) and the AC50 [9] is reported as 46.1 µM (active).

With `CCCN1C[C@H](C)[C@@H](OC)CN(C)C(=O)c2cc(NC(=O)Nc3cccc(F)c3)ccc2OC[C@H]1C` the AC50 [10] was 42.2 µM (active), the AC50 [11] was 2.11 µM (active) and the AC50 [12] was 0.469 µM (active). The AC50 [13] was 2 µM (active), the AC50 [14] was 1.61 µM (active) and the AC50 [15] was 15.2 µM (active). For the same molecule, the AC50 [16] was 2.47 µM (active).

For `CCCCCCNC(=O)n1cc(F)c(=O)[nH]c1=O` [CARMOFUR], the IC50 [17] was > 10 µM (inactive) and the IC50 [18] was > 10 µM (inactive).

For `Clc1ccc(CO/N=C(\Cn2ccnc2)c2ccc(Cl)cc2Cl)c(Cl)c1` [OXICONAZOLE NITRATE], the IC50 [19] was > 40 µM (inactive), the EC50 [20] was 3.82 µM (active) and the IC50 [21] was > 40 µM (inactive). For the same molecule, the EC50 [22] was 1.92 µM (active).

In the case of `N[C@@H]1C[C@H]1c1ccccc1` [TRANYLCYPROMINE HYDROCHLORIDE], the IC50 [23] is reported as > 29.9 µM (inactive), the IC50 [24] is reported as > 33.3 µM (inactive) and the IC50 [25] is reported as > 33.3 µM (inactive). The IC50 [26] was 2.1 µM (active), the EC50 [27] was > 29.9 µM (inactive) and the EC50 [28] was 0.611 µM (active).
